Assay results reported in ChEMBL document CHEMBL5131467, “Multivalent peptide dendrimers inhibit the fusion of viral-cellular membranes and the cellular NF-κB signaling pathway” (Eur J Med Chem, 2022).
Active and inactive are the calls of the source. The rule behind the calls is not given here. Where a SMILES comes first, the peptide text is derived from it. Bridges are numbered along the chain shown (N, C = ends). Roman numbers before positions name the chains, in order. Side-chain parts run from the residue outwards. The star is where a group is joined. Fmoc = O=C(OCC1c2ccccc2-c2ccccc21)*

Columns and labels:
[1] = test system: Influenza A virus; test: Antiviral activity against influenza A/Thailand/Kan353/2004 infected in MDCK cells assessed as inhibition of syncytium formation at 5 ug/ml incubated for 3 hrs by giemsa staining based assay relative to control; format: functional; parameters: scale not given: the % may be the effect or the level left; conditions: dose 5 µg/ml
[2] = test system: Influenza A virus; test: Antiviral activity against Influenza A virus (A/Puerto Rico/8/1934(H1N1)) infected in MDCK cells assessed as reduction in virus induced cytopathic effect during infection incubated for 1 hr by MTT assay; format: functional, organism-based
[3] = test system: RAW264.7; test: Anti-inflammatory activity against mouse RAW264.7 cells assessed as reduction in LPS induced TNF alpha level at 5 ug/ml by ELISA method; format: functional; conditions: dose 5 µg/ml
[4] = test system: Influenza B virus; test: Antiviral activity against Influenza B virus 699[…] clinical isolate infected in MDCK cells incubated for 1 hr by MTT assay; format: functional, organism-based
[5] = test system: Influenza A virus; test: Antiviral activity against Influenza A virus (A/Puerto Rico/8/1934(H1N1)) infected in MDCK cells assessed as reduction in M1 mRNA level at 1 ug/ml measured after 24 hrs post infection by qRT-PCR analysis; format: functional, organism-based; conditions: dose 1.0 µg/ml
[6] = test system: Influenza A virus; test: Antiviral activity against influenza A/Thailand/Kan353/2004 infected in MDCK cells assessed as inhibition of syncytium formation at 2.5 ug/ml incubated for 3 hrs by giemsa staining based assay relative to control; format: functional; parameters: scale not given: the % may be the effect or the level left; conditions: dose 2.5 µg/ml
[7] = Cmax in Kunming mouse at 10 mg/kg, ip by HPLC analysis; format: ADME, organism-based; parameters: dose 10 mg/kg, route ip; conditions: in vivo
[8] = test system: RAW264.7; test: Anti-inflammatory activity against mouse RAW264.7 cells assessed as reduction in Influenza A virus (A/Puerto Rico/8/1934(H1N1)) induced TNF alpha level at 1 ug/ml by ELISA method; format: functional; conditions: dose 1 µg/ml
[9] = test system: Mus musculus; test: Antiviral activity against Kunming mouse infected with Influenza A virus (A/Puerto Rico/8/1934(H1N1)) assessed as recovery in body weight at 1.25 mg/kg, ip administered twice a day with a time interval of 12 hrs for 4 days measured from day 8 upto 15 days (reference value: 17.58 g); format: functional; conditions: time 15 day
[10] = test system: Influenza A virus; test: Antiviral activity against Influenza A virus (A/Puerto Rico/8/1934(H1N1)) infected in MDCK cells after treatment incubated for 1 hr by MTT assay; format: functional, organism-based
[11] = test system: Mus musculus; test: Antiviral activity against Kunming mouse infected with Influenza A virus (A/Puerto Rico/8/1934(H1N1)) assessed as reduction in viral titer in lung homogenate at 5 mg/kg, ip administered twice a day for 3 days after 24 hrs of viral infection; format: functional, organism-based; conditions: time 3.0 day
[12] = test system: Influenza A virus; test: Antiviral activity against Influenza A virus A/Aichi/2/68(H3N2) infected in MDCK cells incubated for 1 hr by MTT assay; format: functional, organism-based
[13] = Cytotoxicity against MDCK cells incubated for 1 hr by MTT assay; format: toxicity, cell-based, Canis lupus familiaris; conditions: dog
[14] = test system: Mus musculus; test: Antiviral activity against Kunming mouse infected with Influenza A virus (A/Puerto Rico/8/1934(H1N1)) assessed as survival rate at 1.25 mg/kg, ip administered twice a day with a time interval of 12 hrs for 4 days relative to control; format: functional; conditions: 96 h, time 4 day
[15] = test system: RAW264.7; test: Cytotoxicity against mouse RAW264.7 cells assessed as cell viability at lesser than 100 ug/ml by CCK-8 assay; format: toxicity, cell-based; conditions: dose < 100 µg/ml
[16] = test system: Mus musculus; test: Antiviral activity against Kunming mouse infected with Influenza A virus (A/Puerto Rico/8/1934(H1N1)) assessed as recovery in body weight at 5 mg/kg, ip administered twice a day with a time interval of 12 hrs for 4 days measured from day 8 upto 15 days (Rvb =18.02 g); format: functional; conditions: time 15 day
[17] = test system: Mus musculus; test: Antiviral activity against Kunming mouse infected with Influenza A virus (A/Puerto Rico/8/1934(H1N1)) assessed as survival rate at 5 mg/kg, ip administered once a day for 5 days relative to control; format: functional; conditions: 120 h, time 5 day
[18] = test system: Influenza A virus; test: Antiviral activity against Influenza A virus (A/Puerto Rico/8/1934(H1N1)) infected in MDCK cells assessed as reduction in HA mRNA level at 1 ug/ml measured after 24 hrs post infection by qRT-PCR analysis; format: functional, organism-based; conditions: dose 1.0 µg/ml
[19] = target: Hemagglutinin (Influenza A virus, UniProt B4URE7); test: Binding affinity to Influenza A Puerto Rico/8/1934/H1N1 hemagglutin assessed as dissociation constant by surface plasmon resonance assay
Chain of Hemagglutinin (B4URE7 whole entry): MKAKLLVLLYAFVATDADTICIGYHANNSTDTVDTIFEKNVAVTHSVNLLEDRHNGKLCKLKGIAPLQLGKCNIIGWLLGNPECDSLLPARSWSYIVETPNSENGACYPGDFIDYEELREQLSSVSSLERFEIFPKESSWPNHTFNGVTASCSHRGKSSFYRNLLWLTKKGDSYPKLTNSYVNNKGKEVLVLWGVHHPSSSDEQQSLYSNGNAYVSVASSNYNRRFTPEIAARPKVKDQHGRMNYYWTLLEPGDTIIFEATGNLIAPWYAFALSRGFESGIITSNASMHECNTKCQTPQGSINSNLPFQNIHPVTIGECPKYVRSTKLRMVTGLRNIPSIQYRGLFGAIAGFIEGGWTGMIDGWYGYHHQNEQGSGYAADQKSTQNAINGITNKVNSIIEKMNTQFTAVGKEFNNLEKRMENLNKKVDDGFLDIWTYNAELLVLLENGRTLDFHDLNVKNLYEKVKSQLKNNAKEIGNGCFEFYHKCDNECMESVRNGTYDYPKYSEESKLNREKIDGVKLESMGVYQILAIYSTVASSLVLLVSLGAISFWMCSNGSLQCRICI

[20] = test system: Influenza A virus; test: Antiviral activity against Influenza A virus (A/Puerto Rico/8/1934(H1N1)) infected in MDCK cells assessed as reduction in virus induced cytopathic effect pre-treated with virus followed by cell infection for 1 hr by MTT assay; format: functional, organism-based
[21] = Selectivity index, ratio of CC50 for MDCK cells to IC50 antiviral activity against Influenza A virus (A/Puerto Rico/8/1934(H1N1)) infected in MDCK cells assessed as reduction in virus induced cytopathic effect pre-treated with virus; format: toxicity, cell-based; conditions: dog, read-out: Selectivity Index
[22] = test system: Influenza A virus; test: Induction of morphological changes in Influenza A Puerto Rico/8/1934/H1N1 assessed as increase in broken edge of the virus incubated for 30 mins by transmission electron microscopic analysis; format: functional, organism-based; conditions: dose 10-50 µg/ml, DDE = dose-dependent effect
[23] = test system: RAW264.7; test: Anti-inflammatory activity against mouse RAW264.7 cells assessed as reduction in LPS induced IL-1 beta level at 1 ug/ml by qRT-PCR analysis; format: functional, cell-based; conditions: dose 1.0 µg/ml
[24] = test system: RAW264.7; test: Anti-inflammatory activity against mouse RAW264.7 cells assessed as reduction in LPS induced IL-6 level at 1 ug/ml by qRT-PCR analysis; format: functional, cell-based; conditions: dose 1.0 µg/ml
[25] = test system: Influenza A virus; test: Antiviral activity against Influenza A Puerto Rico/8/1934/H1N1 infected in human A549 cells assessed as inhibition of viral replication after 24 hrs by hemagglutination assay; format: functional, organism-based
[26] = test system: RAW264.7; test: Anti-inflammatory activity against LPS induced mouse RAW264.7 cells assessed as suppression of NF kappa B expression level at 1.5 ug/ml by luciferase reporter assay; format: functional, cell-based; conditions: dose 1.5 µg/ml
[27] = test system: RAW264.7; test: Anti-inflammatory activity against mouse RAW264.7 cells assessed as reduction in LPS induced TNF alpha level at 1 ug/ml by qRT-PCR analysis; format: functional, cell-based; conditions: dose 1.0 µg/ml
[28] = test system: Influenza A virus; test: Antiviral activity against Influenza A virus (A/Puerto Rico/8/1934(H1N1)) infected in MDCK cells assessed as reduction in viral nucleoprotein expression level at 2 ug/ml pre-treated with virus measured after 24 hrs post infection by indirect immunofluorescence assay; format: functional, organism-based; conditions: dose 2.0 µg/ml
[29] = test system: Influenza A virus; test: Antiviral activity against Influenza A virus (A/Puerto Rico/8/1934(H1N1)) infected in MDCK cells assessed as reduction in virus induced cytopathic effect pretreated with compound incubated for 1 hrs by MTT assay; format: functional, organism-based
[30] = test system: Erythrocyte; test: Hemolytic activity in chicken erythrocytes at up to 50 uM pre-treated with virus for 30 mins followed by addition of cell measured after 30 mins by microplate reader assay; format: toxicity, cell-based, Gallus gallus; conditions: 0.5 h
[31] = test system: RAW264.7; test: Anti-inflammatory activity against Influenza A virus (A/Puerto Rico/8/1934(H1N1)) s induced mouse RAW264.7 cells assessed as suppression of NF kappa B expression level 1.5 ug/ml by luciferase reporter assay; format: functional, cell-based; conditions: dose 1.5 µg/ml
[32] = Cytotoxicity against MDCK cells by CCK-8 assay; format: toxicity, cell-based, Canis lupus familiaris; conditions: dog

NCCCC[C@H](NC(=O)OCC1c2ccccc2-c2ccccc21)C(=O)N[C@@H](CCCCN)C(=O)N[C@@H](Cc1c[nH]c2ccccc12)C(=O)N[C@@H](CCCCN)C(=O)NCCCC[C@H](NC(=O)[C@H](CCCCN)NC(=O)[C@H](Cc1c[nH]c2ccccc12)NC(=O)[C@H](CCCCN)NC(=O)[C@H](CCCCN)NC(=O)OCC1c2ccccc2-c2ccccc21)C(=O)NCCCC[C@H](NC(=O)[C@H](CCCCNC(=O)[C@H](CCCCN)NC(=O)[C@H](Cc1c[nH]c2ccccc12)NC(=O)[C@H](CCCCN)NC(=O)[C@H](CCCCN)NC(=O)OCC1c2ccccc2-c2ccccc21)NC(=O)[C@H](CCCCN)NC(=O)[C@H](Cc1c[nH]c2ccccc12)NC(=O)[C@H](CCCCN)NC(=O)[C@H](CCCCN)NC(=O)OCC1c2ccccc2-c2ccccc21)C(=O)NCC(=O)O (I: Fmoc-KKWKK([Lys-Trp-Lys-Lys-Fmoc])KG-OH / II: Fmoc-KKWKK([Lys-Trp-Lys-Lys-Fmoc]); amide I:6-II:C)
Activity [1]: 90%
IC50 [2]: 310 nM
Activity [3]: 280.5 pg/mL
IC50 [4]: 320 nM
Activity [5]: Active
Activity [6]: 63%
Cmax [7]: 5020 ng/mL
Activity [8]: 203 pg/mL
Activity [9]: 25.84 g
IC50 [10]: 320 nM
Activity [11]: Active
IC50 [12]: 240 nM
CC50 at 1 h [13]: 41900 nM
survival at 1.25 mg/kg [14]: 20%
Activity [15]: Non-Toxic
Activity [16]: 26.99 g
survival at 5 mg/kg [17]: 20%
Activity [18]: Active
Kd [19]: 0.00665 nM
IC50 [20]: 280 nM
selectivity ratio [21]: 150
Activity [22]: Dde
Activity [23]: Active
Activity [24]: Active
Activity [25]: Active
Activity [26]: Active
Activity [27]: Active
Activity [28]: Active
IC50 [29]: 240 nM
Activity [30]: Toxic
Activity [31]: Active
CC50 [32]: 37800 nM
